Measurements published in publication PMC6329299 (The pharmacogenomics journal, 2015).
Positions count from the first letter of the chain named. Structures can show the parent of a compound that is named as a salt.

Tests used:
[1] = molecular target: T1, CES1 variant S83L (Homo sapiens, UniProt P23141, S82L); experiment: Enalapril hydrolysis by CES1 variant S83L transfected cell s9; format: in vitro ADME; settings: enalapril 500 μM
T1 sequence (P23141 18-568 isoform P23141-2 S83L limits assumed): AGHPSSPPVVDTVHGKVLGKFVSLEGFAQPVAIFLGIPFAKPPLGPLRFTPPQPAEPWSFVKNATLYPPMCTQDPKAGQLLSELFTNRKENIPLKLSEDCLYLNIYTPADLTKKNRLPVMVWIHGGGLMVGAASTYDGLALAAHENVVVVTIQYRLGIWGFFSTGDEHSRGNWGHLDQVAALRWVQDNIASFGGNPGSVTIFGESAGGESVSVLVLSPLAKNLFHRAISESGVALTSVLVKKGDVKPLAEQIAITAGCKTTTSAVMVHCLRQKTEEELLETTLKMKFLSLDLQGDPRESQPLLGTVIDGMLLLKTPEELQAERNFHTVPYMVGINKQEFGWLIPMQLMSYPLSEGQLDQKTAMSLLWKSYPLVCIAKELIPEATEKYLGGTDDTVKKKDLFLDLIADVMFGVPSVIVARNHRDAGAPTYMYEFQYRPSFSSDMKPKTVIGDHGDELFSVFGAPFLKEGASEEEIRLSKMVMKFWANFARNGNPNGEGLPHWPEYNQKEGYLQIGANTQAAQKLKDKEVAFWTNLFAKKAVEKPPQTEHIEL

[2] = Hydrolysis
[3] = Hydrolysis by human kidney s9 fractions; format: in vitro ADME; settings: substrate 100 μM, 3 concentrations of HKS9
[4] = molecular target: T2, CES1 variant G19V (Homo sapiens, UniProt P23141, G18V); experiment: Enalapril hydrolysis by CES1 variant G19V transfected cell s9; format: in vitro ADME; settings: enalapril 500 μM
T2 sequence (P23141 18-568 isoform P23141-2 G19V limits assumed): T1 sequence (P23141 18-568 isoform P23141-2 S83L limits assumed) with G2V, L66S

[5] = human, pH 7.4
[6] = molecular target: T3, CES1 variant A270S (Homo sapiens, UniProt P23141, A269S); experiment: Enalapril hydrolysis by CES1 variant A270S transfected cell s9; format: in vitro ADME; settings: enalapril 500 μM
T3 sequence (P23141 18-568 isoform P23141-2 A270S limits assumed): T1 sequence (P23141 18-568 isoform P23141-2 S83L limits assumed) with L66S, A253S

[7] = Hydrolysis by human intestine s9 fractions; format: in vitro ADME; settings: substrate 100 μM, 3 concentrations of HIS9
[8] = system: CES1 in individual human liver s9 fractions; format: in vitro ADME
[9] = molecular target: T4, CES1 in individual human liver s9 fractions (Homo sapiens, UniProt P23141); format: in vitro ADME; settings: 143G/G livers; HLS9 0.5 mg/ml, enalapril 500 μM, 37 °C, 10 min
T4 sequence (P23141 18-567): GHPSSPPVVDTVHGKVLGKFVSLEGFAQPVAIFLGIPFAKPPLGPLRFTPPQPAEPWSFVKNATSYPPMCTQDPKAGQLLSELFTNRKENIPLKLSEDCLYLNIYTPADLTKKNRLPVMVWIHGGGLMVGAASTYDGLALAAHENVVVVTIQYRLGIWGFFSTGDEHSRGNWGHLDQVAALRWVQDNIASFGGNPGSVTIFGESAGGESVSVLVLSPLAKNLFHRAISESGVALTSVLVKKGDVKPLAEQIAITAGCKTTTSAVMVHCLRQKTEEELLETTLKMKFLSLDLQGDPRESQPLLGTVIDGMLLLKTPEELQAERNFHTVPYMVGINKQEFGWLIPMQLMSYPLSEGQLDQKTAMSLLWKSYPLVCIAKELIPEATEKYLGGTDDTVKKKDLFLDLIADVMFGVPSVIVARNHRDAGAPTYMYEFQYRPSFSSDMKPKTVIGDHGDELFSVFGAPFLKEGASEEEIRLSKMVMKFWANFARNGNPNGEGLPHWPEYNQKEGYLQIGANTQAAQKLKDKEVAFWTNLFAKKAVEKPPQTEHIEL

[10] = human liver samples, enalapril 500 μM

Catalytic activity of S83L on enalapril activation vs WT CES1 [1]: comparable to the WT CES1 | Km ([2]; human, pooled human liver s9 fractions (HLS9), pH 7.4): 60.1 ± 4.2 µM | Hydrolysis to active metabolite by human liver s9 fractions ([2]; prodrug 100 μM, 3 concentrations of HLS9): efficiently hydrolyzed | Hydrolysis by human kidney s9 fractions [3]: No appreciable activation | Catalytic activity of G19V on enalapril activation vs WT CES1 [4]: comparable to the WT CES1 | Clint (Vmax/Km) [5]: 1.1 μl/min/mg protein | Catalytic activity of A270S on enalapril activation vs WT CES1 [6]: comparable to the WT CES1 | Hydrolysis by human intestine s9 fractions [7]: No appreciable activation | CES1 activity in the null-CES1 liver samples (some G143E non-carriers) ([8]; CES1 expression comparable to pooled HLS9): null CES1 activity | CES1 activity on enalapril activation, 143G/E livers as fraction of 143G/G ([8]; human liver samples): approximately 1/3 | CES1 activity on enalapril activation between CES1P1/CES1P1, CES1P1/CES1P1VAR and CES1P1VAR/CES1P1VAR genotypes [8, 10]: no significant differences | CES1 activity on enalapril hydrolysis among CES1/CES1, CES1/CES1VAR and CES1VAR/CES1VAR genotypes [8, 10]: comparable | CES1 activity on enalapril activation within the nine CES1/CES1P1 diplotypes ([8]; one way ANOVA, activity P=0.549): no significant differences | enalapril activation rate [9]: 55.4±37.3 pmole/min/mg protein
SMILES: CCOC(=O)[C@H](CCc1ccccc1)N[C@@H](C)C(=O)N1CCC[C@H]1C(=O)O [Enalapril, Enalapril maleate]
Vmax ([2]; HLS9, PBS pH 7.4, 37 °C, unit for enalapril): 67.5 ± 1.3 pmole/min/mg protein
